# Experimental data published in PubChem BioAssay AID2060895 (Molecular Pharmacology Branch, DTP, NCI, 2025).
# Test system: PDC 899932-113-R3-J6 complex spheroid viability
# Assay: Anticancer human tumor 899932-113-R3-J6-PDC patient-derived melanoma cell line growth inhibition [RAS]
# Settings: for IC50: curve of first compound; for viability, T/C: stronger effect = lower value
# In short: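 Agents were tested in combination matrices in half-log decrements from a top concentration at or near clinical Cmax (10 microM if undetermined). Targets were multi-cell spheroids of tumour lines plus HUVEC and MSC stromal cells.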
# 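Wherever viability, T/C is given: spheroids exposed to agents for seven days before readout; 100% = DMSO vehicle control wells.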
smiles,measurement,setting,value
C=CC(=O)N1CCN(c2nc(OCC3CCCN3C)nc3c(F)c(-c4nc(N)cc(C)c4C(F)(F)F)c(Cl)cc23)C(C)C1 (configuration not stated) + CCn1c(-c2cc(N3CCN(C)CC3)cnc2C(C)OC)c2c3cc(ccc31)-c1csc(n1)CC(NC(=O)C1CC1C)C(=O)N1CCCC(N1)C(=O)OCC(C)(C)C2,IC50,second compound 0.000949 µM,> 1000 nM
same,IC50,second compound 0.003 µM,< 3.16 nM
same,IC50,second compound 0.00949 µM,< 3.16 nM
same,IC50,second compound 0.03 µM,< 3.16 nM
same,IC50,second compound 0.0949 µM,< 3.16 nM
same,IC50,second compound 0.3 µM,< 3.16 nM
same,"viability, T/C","second compound 0.000949 µM, first compound 0.00316 µM",73.2%
same,"viability, T/C","second compound 0.000949 µM, first compound 0.01 µM",71.3%
same,"viability, T/C","second compound 0.000949 µM, first compound 0.0316 µM",75.9%
same,"viability, T/C","second compound 0.000949 µM, first compound 0.1 µM",76.8%
same,"viability, T/C","second compound 0.000949 µM, first compound 0.316 µM",74%
same,"viability, T/C","second compound 0.000949 µM, first compound 1 µM",78.2%
same,"viability, T/C","second compound 0.003 µM, first compound 0.00316 µM",39.8%
same,"viability, T/C","second compound 0.003 µM, first compound 0.01 µM",35.6%
same,"viability, T/C","second compound 0.003 µM, first compound 0.0316 µM",36.5%
same,"viability, T/C","second compound 0.003 µM, first compound 0.1 µM",37.7%
same,"viability, T/C","second compound 0.003 µM, first compound 0.316 µM",42.3%
same,"viability, T/C","second compound 0.003 µM, first compound 1 µM",34.5%
same,"viability, T/C","second compound 0.00949 µM, first compound 0.00316 µM",3.88%
same,"viability, T/C","second compound 0.00949 µM, first compound 0.01 µM",4.28%
same,"viability, T/C","second compound 0.00949 µM, first compound 0.0316 µM",6.59%
same,"viability, T/C","second compound 0.00949 µM, first compound 0.1 µM",5.83%
same,"viability, T/C","second compound 0.00949 µM, first compound 0.316 µM",4.76%
same,"viability, T/C","second compound 0.00949 µM, first compound 1 µM",5.5%
same,"viability, T/C","second compound 0.03 µM, first compound 0.00316 µM",2.75%
same,"viability, T/C","second compound 0.03 µM, first compound 0.01 µM",2.91%
same,"viability, T/C","second compound 0.03 µM, first compound 0.0316 µM",4.47%
same,"viability, T/C","second compound 0.03 µM, first compound 0.1 µM",2.82%
same,"viability, T/C","second compound 0.03 µM, first compound 0.316 µM",2.96%
same,"viability, T/C","second compound 0.03 µM, first compound 1 µM",2.4%
same,"viability, T/C","second compound 0.0949 µM, first compound 0.00316 µM",2.13%
same,"viability, T/C","second compound 0.0949 µM, first compound 0.01 µM",2.76%
same,"viability, T/C","second compound 0.0949 µM, first compound 0.0316 µM",2.86%
same,"viability, T/C","second compound 0.0949 µM, first compound 0.1 µM",1.94%
same,"viability, T/C","second compound 0.0949 µM, first compound 0.316 µM",2.58%
same,"viability, T/C","second compound 0.0949 µM, first compound 1 µM",2.69%
same,"viability, T/C","second compound 0.3 µM, first compound 0.00316 µM",2.09%
same,"viability, T/C","second compound 0.3 µM, first compound 0.01 µM",2.1%
same,"viability, T/C","second compound 0.3 µM, first compound 0.0316 µM",3.32%
same,"viability, T/C","second compound 0.3 µM, first compound 0.1 µM",3.11%
same,"viability, T/C","second compound 0.3 µM, first compound 0.316 µM",2.88%
same,"viability, T/C","second compound 0.3 µM, first compound 1 µM",2.36%
